“And” between values parts separate entries of the source, which are not always exact repeats. Equal entries are not always repeated. Where two headings read alike, the source gives them in different places.
Legend:
[1] = target: T1, cyclin B/CDK1 enzyme (Homo sapiens, UniProt P06493); assay: CDK1 ELISA kinase assay (phospho-Rb ser 795 detection); format: biochemical
T1 construct: purchased New England BioLabs; host or cells: Sf9 insect cells, recombinant baculovirus
Summary of the method: (§1)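 Screening was done at 10 ug/ml compound. Each partially purified cyclin/CDK complex, produced in baculovirus-infected Sf9 cells, phosphorylated a coated GST-Rb C-terminal fragment with 200 μM ATP, and Ser795 phosphorylation was quantified by HRP-ELISA at 450 nm.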

[2] = tested on: BT474; assay: Cytotoxicity assay (SRB), BT474; format: cell-based
Summary of the method: (§2)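 BT474 (12000 cells/well) was treated for 6 days, whereas HCT-116 (4000), LoVo (6000) and MCF-7 (6000) were treated for 3 days, all in RPMI 1640 containing 5% FBS. Surviving-cell percentage came from SRB dye binding measured at 540 nm.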

[3] = tested on: HCT-116; assay: Cytotoxicity assay (SRB), HCT-116; format: cell-based; conditions: Homo sapiens, HCT-116, 72 h, HCT116 cells, SRB, read-out: In Vitro Cellular Activity IC50 HCT116
Summary of the method: as §2

[4] = tested on: LoVo; assay: Cytotoxicity assay (SRB), LoVo; format: cell-based; conditions: Homo sapiens, LoVo, 72 h, LoVo cells, SRB, read-out: In Vitro Cellular Activity IC50 LOVO
Summary of the method: as §2

[5] = tested on: MCF-7; assay: Cytotoxicity assay (SRB), MCF-7; format: cell-based; conditions: Homo sapiens, MCF7, 72 h, MCF-7 cells, SRB, read-out: In Vitro Cellular Activity IC50 MCF-7
Summary of the method: as §2

[6] = I.V. and P.O. Dosing in Mice; format: in vivo; conditions: for AUC(0-inf) / bioavailability: mouse, in vivo; for bioavailability: po 50 mg/kg vs i.v. 2 mg/kg
[7] = target: T2, cyclin D1/cdk 4 enzyme (Homo sapiens, UniProt P11802); assay: CDK4 ELISA kinase assay (phospho-Rb ser 795 detection); format: biochemical
T2 construct: made in house; host or cells: Sf9 insect cells, recombinant baculovirus
Summary of the method: as §1

[8] = target: T3, cyclin E/CDK2 enzyme (Homo sapiens, UniProt P24941); assay: CDK2 ELISA kinase assay (phospho-Rb ser 795 detection); format: biochemical
T3 construct: made in house; host or cells: Sf9 insect cells, recombinant baculovirus
Summary of the method: as §1

[9] = In Vitro Enzyme Assays, read-out: CDK1 IC50
[10] = Homo sapiens, BT-474, 144 h, BT474 cells, SRB, 6 days; read-out: In Vitro Cellular Activity IC50 BT474
[11] = iv, 2 mg/kg, dose i.v. 2 mg/kg, read-out: aucinf obs (i.v.)
[12] = po, 50 mg/kg, dose po 50 mg/kg, read-out: aucinf obs (po)
[13] = dose i.v. 2 mg/kg, second value, (methocel/tween)
[14] = In Vitro Enzyme Assay, cyclin D1/cdk 4, read-out: CDK4 IC50
[15] = In Vitro Enzyme Assay, cyclin E/CDK2, read-out: CDK2 IC50
[16] = In Vitro Enzyme Assay, cyclin B/CDK1, read-out: CDK1 IC50
[17] = Homo sapiens, BT-474, 144 h, BT474 cells, 6 days, SRB; read-out: In Vitro Cellular Activity IC50 BT474

T1 sequence (P06493 whole entry): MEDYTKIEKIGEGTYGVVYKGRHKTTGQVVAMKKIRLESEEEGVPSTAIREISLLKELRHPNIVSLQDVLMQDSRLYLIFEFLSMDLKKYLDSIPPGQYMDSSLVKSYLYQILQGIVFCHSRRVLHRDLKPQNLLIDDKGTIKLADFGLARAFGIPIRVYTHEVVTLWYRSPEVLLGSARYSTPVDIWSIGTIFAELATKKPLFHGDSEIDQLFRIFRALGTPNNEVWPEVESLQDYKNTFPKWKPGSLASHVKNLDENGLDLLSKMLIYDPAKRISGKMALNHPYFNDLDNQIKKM
T1 sequence (P14635 whole entry partner): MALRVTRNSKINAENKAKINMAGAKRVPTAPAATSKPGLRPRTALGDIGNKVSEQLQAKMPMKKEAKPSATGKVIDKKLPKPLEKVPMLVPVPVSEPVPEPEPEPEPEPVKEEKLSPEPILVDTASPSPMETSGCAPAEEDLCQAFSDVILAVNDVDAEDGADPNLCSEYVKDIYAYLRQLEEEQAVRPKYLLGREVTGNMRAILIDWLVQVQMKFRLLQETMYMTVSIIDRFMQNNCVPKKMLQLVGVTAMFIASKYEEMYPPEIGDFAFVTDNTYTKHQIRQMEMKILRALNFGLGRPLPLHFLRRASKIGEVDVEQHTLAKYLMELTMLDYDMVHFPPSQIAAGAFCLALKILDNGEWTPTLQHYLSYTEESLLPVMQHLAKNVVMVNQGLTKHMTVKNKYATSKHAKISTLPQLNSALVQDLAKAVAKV
T2 sequence (P11802 whole entry, species assumed): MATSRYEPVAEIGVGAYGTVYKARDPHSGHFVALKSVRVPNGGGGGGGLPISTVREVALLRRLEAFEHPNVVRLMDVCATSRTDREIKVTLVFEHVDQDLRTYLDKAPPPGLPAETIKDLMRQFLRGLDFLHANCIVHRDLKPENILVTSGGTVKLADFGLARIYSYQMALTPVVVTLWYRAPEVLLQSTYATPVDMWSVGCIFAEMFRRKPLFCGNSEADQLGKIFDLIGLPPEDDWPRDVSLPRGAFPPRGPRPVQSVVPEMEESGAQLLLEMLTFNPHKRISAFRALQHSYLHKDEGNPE
T2 sequence (P24385 whole entry partner, species assumed): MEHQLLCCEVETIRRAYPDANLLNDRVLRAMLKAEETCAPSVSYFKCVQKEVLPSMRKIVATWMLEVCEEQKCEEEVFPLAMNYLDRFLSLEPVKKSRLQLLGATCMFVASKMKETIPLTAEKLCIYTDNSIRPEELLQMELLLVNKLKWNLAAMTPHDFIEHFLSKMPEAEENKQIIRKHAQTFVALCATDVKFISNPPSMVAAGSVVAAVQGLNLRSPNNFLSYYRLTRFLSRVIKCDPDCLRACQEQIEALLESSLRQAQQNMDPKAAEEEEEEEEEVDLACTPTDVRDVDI

Cl_obs ([6]; dose i.v. 2 mg/kg) [mL/min/kg]	Vss_obs ([6]; dose i.v. 2 mg/kg) [L/kg]	HL_Lambda_z ([6]; dose po 50 mg/kg) [h]	AUC(0-inf) [6, 11] [ng·h/mL]	AUC(0-inf) [6, 12] [ng·h/mL]	bioavailability ([6]; po, 50 mg/kg) [%]	IC50 [7, 14] [nM]	IC50 [8, 15]	IC50 [1, 16] [nM]	melting point	Structure (SMILES)	IC50 [2, 17] [nM]	IC50 ([3]; 3 days) [nM]	IC50 ([4]; 3 days) [nM]	IC50 ([5]; 3 days) [nM]	further results
33	1.5	6.1	999	360	14	–	–	–	–	CCCOc1ccc(CN/C=C2\C(=O)NC(=O)c3ccc(I)cc32)cc1O [Example 178, (4Z)-4-{[(3-Hydroxy-4-propoxybenzyl)amino]methylene}-6-iodoisoquinoline-1,3(2H,4H)-dione]	–	–	–	–	IC50 [1, 9]: 13900 nM; IC50 [2, 10]: 620 nM; IC50 ([3]; three days): 650 nM; IC50 ([4]; three days): 740 nM; IC50 ([5]; three days): 1800 nM
3	0.2	1.8	11000	17200	6.3	–	–	–	–	CCCOc1cnc(CNC=C2C(=O)NC(=O)c3ccc(I)cc32)cc1O [Example 364, 4-{[(4-Hydroxy-5-propoxy-pyridin-2-ylmethyl)-amino]-methylene}-6-iodo-4H-isoquinoline-1,3-dione]	–	–	–	–	IC50 ([7]; In Vitro Enzyme Assays, 200 μM ATP, read-out: CDK4 IC50): 30 nM; IC50 ([8]; In Vitro Enzyme Assays, read-out: CDK2 IC50): 1600 nM; IC50 [1, 9]: 25300 nM; IC50 [2, 10]: 340 nM; IC50 ([3]; three days): 730 nM; IC50 ([4]; three days): 520 nM; IC50 ([5]; three days): 880 nM; Cl_obs [6, 13]: 2.1 mL/min/kg; Vss_obs [6, 13]: 0.1 L/kg; HL_Lambda_z ([6]; dose po 50 mg/kg, second value, (methocel/tween)): 2.4 h; AUC(0-inf) ([6]; iv, 2 mg/kg, dose i.v. 2 mg/kg, second value, (methocel/tween), read-out: aucinf obs (i.v.)): 15800 ng·h/mL; AUC(0-inf) ([6]; po, 50 mg/kg, dose po 50 mg/kg, second value, (methocel/tween), read-out: aucinf obs (po)): 5350 ng·h/mL; bioavailability ([6]; po, 50 mg/kg, second value, (methocel/tween)): 1.4%
–	–	–	–	–	–	1300	> 50000 nM	> 50000	200 to 201 °C	O=C1NC(=O)c2ccc(Br)cc2/C1=C/Nc1ccc(CN2CCC(CCO)CC2)cc1 [Example 489, (4Z)-6-Bromo-4-{[(4-{[4-(2-hydroxyethyl)piperidin-1-yl]methyl}phenyl)amino]methylene}isoquinoline-1,3(2H,4H)-dione]	6250	4040	4590	3430	–
–	–	–	–	–	–	< 5	2800 nM	20200	288 to 290 °C (dec.)	CCCOc1cnc(CN/C=C2\C(=O)NC(=O)c3ccc(-c4ccco4)cc32)cc1O [Example 502, 6-Furan-2-yl-4-{[(4-hydroxy-5-propoxy-pyridin-2-ylmethyl)-amino]-methylene}-4H-isoquinoline-1,3-dione]	690	1400	960	1200	–
79	6.7	2.6	423	5590	53	–	4700 nM	–	–	O=C1NC(=O)c2ccc(I)cc2/C1=C/NCc1ccc(-c2ccoc2)c(O)c1 [Example 506, 4-[(4-Furan-3-yl-3-hydroxy-benzylamino)-methylene]-6-iodo-4H-isoquinoline-1,3-dione]	290	–	410	–	–
–	–	–	–	–	–	13700	16000 nM	3000	238 to 239 °C	CN1CCN(c2cnc(N/C=C3\C(=O)NC(=O)c4ccc(I)cc43)cn2)CC1 [Example 507, (4Z)-6-Iodo-4-({[5-(4-methylpiperazin-1-yl)pyrazin-2-yl]amino}methylene)isoquinoline-1,3(2H,4H)-dione]	9500	3100	18000	11000	–
–	–	–	–	–	–	1300	> 50000 nM	2200	226 to 227 °C	CN1CCN(c2cnc(N/C=C3\C(=O)NC(=O)c4ccc(-c5ccoc5)cc43)cn2)CC1 [Example 508, (4Z)-6-(3-Furyl)-4-({[5-(4-methylpiperazin-1-yl)pyrazin-2-yl]amino}methylene)isoquinoline-1,3(2H,4H)-dione]	3000	950	1100	1300	–
–	–	–	–	–	–	200	> 50000 nM	> 50000	95 to 96 °C	CN(C)C1CCN(Cc2ccc(N/C=C3\C(=O)NC(=O)c4ccc(-c5ccc(F)cc5)cc43)cc2)C1 (stereo not drawn) [Example 512, (4Z)-4-{[(4-{[3-(Dimethylamino)pyrrolidin-1-yl]methyl}phenyl)amino]methylene}-6-(4-fluorophenyl)isoquinoline-1,3(2H,4H)-dione]	2360	1190	3050	2700	–
–	–	–	–	–	–	60	15800 nM	> 50000	230 to 231 °C	O=C1NC(=O)c2ccc(I)cc2/C1=C/NCc1ccc(-n2cccc2)c(O)c1 [Example 514, (4Z)-4-({[3-Hydroxy-4-(1H-pyrrol-1-yl)benzyl]amino}methylene)-6-iodoisoquinoline-1,3(2H,4H)-dione]	590	1040	740	2250	–
14	0.5	0.5	2360	39	0.07	270	> 50000 nM and 41500 nM	29600	–	O=C1NC(=O)c2ccc(I)cc2/C1=C/NCc1ccn(-c2ccccc2)c(=O)c1 [Example 517, (4Z)-6-Iodo-4-({[(2-oxo-1-phenyl-1,2-dihydropyridin-4-yl)methyl]amino}methylene)isoquinoline-1,3(2H,4H)-dione]	90	250	170	790	–
–	–	–	–	–	–	20	560 nM	2600	180 to 181 °C	CN1CCN(c2ccc(CN/C=C3\C(=O)NC(=O)c4ccc(I)cc43)cc2O)CC1 [Example 521, (4Z)-4-({[3-Hydroxy-4-(4-methylpiperazin-1-yl)benzyl]amino}methylene)-6-iodoisoquinoline-1,3(2H,4H)-dione]	7550	2570	5440	2600	–
–	–	–	–	–	–	200	31100 nM	> 50000	120 to 121 °C	COC[C@@H]1CCCN1c1ccc(CN/C=C2\C(=O)NC(=O)c3ccc(I)cc32)cc1O [Example 523, (4Z)-4-[({3-Hydroxy-4-[(2S)-2-(methoxymethyl)pyrrolidin-1-yl]benzyl}amino)methylene]-6-iodoisoquinoline-1,3(2H,4H)-dione]	5700	6400	6200	7300	–
12	0.4	3.4	2750	12000	17	60	2600 nM	11600	–	O=C1NC(=O)c2ccc(I)cc2/C1=C/NCc1ccn(-c2ccoc2)c(=O)c1 [Example 525, (4Z)-4-[({[1-(3-Furyl)-2-oxo-1,2-dihydropyridin-4-yl]methyl}amino)methylene]-6-iodoisoquinoline-1,3(2H,4H)-dione]	140	710	450	710	–

Source: US7713994B2 (Wyeth LLC, priority 2005, dated 2010)
